Source: PubChem BioAssay (NCI)
Where “and” joins values, the source holds several entries; their conditions need not be identical. Equal entries are not always repeated.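 These data come from cells grown in 96-well plates and exposed to compound for 48 hours at five concentrations. GI50 = concentration required for 50% inhibition of growth. Definition used: TGI = concentration required for complete inhibition of growth.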

How the values were obtained:
Test in all cases: DTP human tumour cell line panel, 48 h
[1] = system: 786-0 renal
[2] = system: A498 renal
[3] = system: A549 NSCLC
[4] = system: ACHN renal
[5] = system: CAKI-1 renal
[6] = system: CCRF-CEM leukemia
[7] = system: COLO 205 colon
[8] = system: DU-145 prostate
[9] = system: EKVX NSCLC
[10] = system: HCC-2998 colon
[11] = system: HCT-116 colon
[12] = system: HCT-15 colon
[13] = system: HL-60(TB) leukemia
[14] = system: HOP-62 NSCLC
[15] = system: HOP-92 NSCLC
[16] = system: HS 578T breast
[17] = system: HT29 colon
[18] = system: IGROV1 ovarian
[19] = system: K-562 leukemia
[20] = system: KM12 colon
[21] = system: LOX IMVI melanoma
[22] = system: M14 melanoma
[23] = system: MALME-3M melanoma
[24] = system: MCF7 breast
[25] = system: MDA-MB-231 breast
[26] = system: MDA-MB-435
[27] = system: MDA-N
[28] = system: NCI-H226 lung
[29] = system: NCI-H23 lung
[30] = system: NCI-H460 lung
[31] = system: NCI-H522 lung
[32] = system: NCI/ADR-RES ovarian
[33] = system: OVCAR-3 ovarian
[34] = system: OVCAR-4 ovarian
[35] = system: OVCAR-8 ovarian
[36] = system: PC-3 prostate
[37] = system: RXF 393 renal
[38] = system: SF-268 CNS
[39] = system: SF-295 CNS
[40] = system: SF-539 CNS
[41] = system: SK-MEL-2 melanoma
[42] = system: SK-MEL-28 melanoma
[43] = system: SK-MEL-5 melanoma
[44] = system: SK-OV-3 ovarian
[45] = system: SN12C renal
[46] = system: SNB-19 CNS
[47] = system: SNB-75 CNS
[48] = system: SW-620 colon
[49] = system: T-47D breast
[50] = system: TK-10 renal
[51] = system: U251 CNS
[52] = system: UACC-257 melanoma
[53] = system: UACC-62 melanoma
[54] = system: UO-31 renal
[55] = system: BT-549 breast
[56] = system: MOLT-4 leukemia
[57] = system: OVCAR-5 ovarian
[58] = system: RPMI-8226 leukemia
[59] = system: SR leukemia

## OC(C/C=N/Nc1ccccc1)(C(F)(F)Cl)C(F)(F)Cl
[1]
  TGI: > 10 µM
[2]
  TGI: > 10 µM
[3]
  TGI: > 10 µM
[4]
  TGI: > 10 µM
[5]
  TGI: > 10 µM
[6]
  TGI: > 10 µM
[7]
  TGI: > 10 µM
[8]
  TGI: > 10 µM
[9]
  TGI: > 10 µM
[10]
  TGI: > 10 µM
[11]
  TGI: > 10 µM
[12]
  TGI: > 10 µM
[13]
  TGI: > 10 µM
[14]
  TGI: > 10 µM
[15]
  TGI: > 10 µM
[16]
  TGI: > 10 µM
[17]
  TGI: > 10 µM
[18]
  TGI: > 10 µM
[19]
  TGI: > 10 µM
[20]
  TGI: > 10 µM
[21]
  TGI: > 10 µM
[22]
  TGI: > 10 µM
[23]
  TGI: > 10 µM
[24]
  TGI: > 10 µM
[25]
  TGI: > 10 µM
[26]
  TGI: > 10 µM
[27]
  TGI: > 10 µM
[28]
  TGI: > 10 µM
[29]
  TGI: > 10 µM
[30]
  TGI: > 10 µM
[31]
  TGI: > 10 µM
[32]
  TGI: > 10 µM
[33]
  TGI: > 10 µM
[34]
  TGI: > 10 µM
[35]
  TGI: > 10 µM
[36]
  TGI: > 10 µM
[37]
  TGI: > 10 µM
[38]
  TGI: > 10 µM
[39]
  TGI: > 10 µM
[40]
  TGI: > 10 µM
[41]
  TGI: > 10 µM
[42]
  TGI: > 10 µM
[43]
  TGI: > 10 µM
[44]
  TGI: > 10 µM
[45]
  TGI: > 10 µM
[46]
  TGI: > 10 µM
[47]
  TGI: > 10 µM
[48]
  TGI: > 10 µM
[49]
  TGI: > 10 µM
[50]
  TGI: > 10 µM
[51]
  TGI: > 10 µM
[52]
  TGI: > 10 µM
[53]
  TGI: > 10 µM
[54]
  TGI: > 10 µM

## OCCN1CCN(CC/C=C2\c3ccccc3Sc3ccc(Cl)cc32)CC1
[1]
  GI50: 1.82 µM and 3.06 µM
  TGI: 3.65 µM and 8.58 µM
[2]
  GI50: 2.14 µM and 1.84 µM
  TGI: 4.29 µM and 7.94 µM
[3]
  GI50: 4.79 µM and 4.13 µM
  TGI: 22.9 µM and 14.3 µM
[4]
  GI50: 5.06 µM and 6.56 µM
  TGI: 17 µM and 17.9 µM
[55]
  GI50: 7.89 µM
  TGI: 22.4 µM
[5]
  GI50: 2.31 µM and 2.6 µM
  TGI: 10.4 µM and 8.18 µM
[6]
  GI50: 1.61 µM and 3.29 µM
  TGI: 4.58 µM and 11.9 µM
[7]
  GI50: 1.65 µM and 1.59 µM
  TGI: 3.24 µM and 3 µM
[8]
  GI50: 5.18 µM and 7.27 µM
  TGI: 17.4 µM and 19.7 µM
[9]
  GI50: 5.78 µM and 6.11 µM
  TGI: 23.7 µM and 21 µM
[10]
  GI50: 1.99 µM and 1.68 µM
  TGI: 3.8 µM and 3.16 µM
[11]
  GI50: 2.39 µM and 1.98 µM
  TGI: 4.85 µM and 4.18 µM
[12]
  GI50: 1.84 µM and 2 µM
  TGI: 3.64 µM and 4.29 µM
[13]
  GI50: 4.04 µM
  TGI: 3.71 µM and 9.92 µM
[14]
  GI50: 4.07 µM and 2.62 µM
  TGI: 14.5 µM and 7.04 µM
[15]
  GI50: 1.02 µM and 2.44 µM
  TGI: 6.1 µM and 14.1 µM
[16]
  GI50: 2.43 µM and 2.25 µM
  TGI: 7.02 µM and 7.94 µM
[17]
  GI50: 1.72 µM and 1.69 µM
  TGI: 3.92 µM and 3.42 µM
[18]
  GI50: 3.21 µM and 3.51 µM
  TGI: 12.7 µM and 11 µM
[19]
  GI50: 1.52 µM and 1.77 µM
  TGI: 2.94 µM and 3.68 µM
[20]
  GI50: 2.73 µM and 2.81 µM
  TGI: 6.02 µM and 7.34 µM
[21]
  GI50: 1.96 µM and 1.65 µM
  TGI: 3.89 µM and 3.13 µM
[22]
  GI50: 1.78 µM
  TGI: 4.27 µM and 3.22 µM
[23]
  GI50: 1.94 µM
  TGI: 3.8 µM
[24]
  GI50: 1.52 µM and 2.21 µM
  TGI: 3.34 µM and 5.45 µM
[25]
  GI50: 2.62 µM and 2.09 µM
  TGI: 12 µM and 6.46 µM
[26]
  GI50: 1.99 µM and 2.01 µM
  TGI: 4.78 µM and 4.63 µM
[56]
  GI50: 1.76 µM and 2.91 µM
  TGI: 4.03 µM and 8.54 µM
[28]
  GI50: 6.93 µM
  TGI: 22.1 µM
[29]
  GI50: 10.7 µM and 7.72 µM
  TGI: 28.2 µM and 21.4 µM
[30]
  GI50: 1.89 µM and 2.19 µM
  TGI: 3.75 µM and 4.5 µM
[31]
  GI50: 11.6 µM and 1.75 µM
  TGI: 29.1 µM and 3.38 µM
[32]
  GI50: 10.3 µM and 8.06 µM
  TGI: 24.8 µM and 21.8 µM
[33]
  GI50: 2.88 µM and 5.66 µM
  TGI: 13.1 µM and 17.8 µM
[34]
  GI50: 8.38 µM and 8.18 µM
  TGI: 20.7 µM and 21.1 µM
[57]
  GI50: 3.75 µM and 11.8 µM
  TGI: 14.1 µM and 24.9 µM
[35]
  GI50: 7.95 µM and 7.2 µM
  TGI: 28.3 µM and 19.8 µM
[36]
  GI50: 2.75 µM and 2.96 µM
  TGI: 11.8 µM and 13.4 µM
[58]
  GI50: 1.17 µM and 3.12 µM
  TGI: 3.11 µM and 10.8 µM
[37]
  GI50: 4.16 µM
  TGI: 11.4 µM
[38]
  GI50: 2.58 µM and 4.5 µM
  TGI: 10.9 µM and 15.1 µM
[39]
  GI50: 1.79 µM and 2.17 µM
  TGI: 5.07 µM and 5.33 µM
[40]
  GI50: 1.61 µM and 2.05 µM
  TGI: 3.37 µM and 4.37 µM
[41]
  GI50: 2.75 µM and 2.26 µM
  TGI: 5.98 µM and 4.9 µM
[42]
  GI50: 1.66 µM
  TGI: 3.91 µM and 3.03 µM
[43]
  GI50: 1.61 µM and 1.67 µM
  TGI: 3.01 µM and 3.04 µM
[44]
  GI50: 6.48 µM and 5.76 µM
  TGI: 19.1 µM and 16.9 µM
[45]
  GI50: 7.12 µM and 7.01 µM
  TGI: 27.4 µM and 20.4 µM
[46]
  GI50: 2.45 µM and 4.49 µM
  TGI: 6.43 µM and 10.4 µM
[47]
  GI50: 1.41 µM and 2.7 µM
  TGI: 5.07 µM and 7.95 µM
[59]
  GI50: 1.7 µM
  TGI: 4.59 µM
[48]
  GI50: 2.38 µM and 1.91 µM
  TGI: 5.48 µM and 4.01 µM
[49]
  GI50: 2.9 µM and 2.79 µM
  TGI: 10.4 µM and 11.5 µM
[50]
  GI50: 4.59 µM and 2.07 µM
  TGI: 19.4 µM and 5.62 µM
[51]
  GI50: 2.34 µM and 2.46 µM
  TGI: 5.96 µM and 6.4 µM
[52]
  GI50: 1.97 µM and 1.71 µM
  TGI: 4.18 µM and 3.17 µM
[53]
  GI50: 1.73 µM and 1.77 µM
  TGI: 3.61 µM and 3.44 µM
[54]
  GI50: 2.14 µM and 1.96 µM
  TGI: 7.66 µM and 6.24 µM

## CC1=C(/C=C/C(C)=C/C=C/C(C)=C/CO)C(C)(C)CCC1
[1]
  TGI: 34.2 µM
[2]
  TGI: 42.6 µM
[3]
  TGI: 45.5 µM
[4]
  TGI: > 100 µM
[5]
  TGI: > 100 µM
[6]
  TGI: 46.4 µM
[7]
  TGI: 38.3 µM
[8]
  TGI: > 100 µM
[9]
  TGI: > 100 µM
[10]
  TGI: 36.2 µM
[12]
  TGI: > 100 µM
[13]
  TGI: 45.3 µM
[14]
  TGI: 47.5 µM
[17]
  TGI: > 100 µM
[18]
  TGI: 57.7 µM
[19]
  TGI: > 100 µM
[20]
  TGI: > 100 µM
[21]
  TGI: 43.5 µM
[22]
  TGI: 35.7 µM
[23]
  TGI: 29.1 µM
[25]
  TGI: 78.5 µM
[26]
  TGI: 62.4 µM
[27]
  TGI: > 100 µM
[56]
  TGI: 44.4 µM
[28]
  TGI: 50.9 µM
[29]
  TGI: 54.8 µM
[30]
  TGI: > 100 µM
[31]
  TGI: 54.7 µM
[32]
  TGI: 43.1 µM
[33]
  TGI: 28.4 µM
[34]
  TGI: > 100 µM
[57]
  TGI: 61.2 µM
[36]
  TGI: > 100 µM
[37]
  TGI: 28.3 µM
[38]
  TGI: 52 µM
[39]
  TGI: 58.3 µM
[40]
  TGI: 34.3 µM
[41]
  TGI: 44 µM
[42]
  TGI: 48.5 µM
[43]
  TGI: 32 µM
[44]
  TGI: > 100 µM
[45]
  TGI: 60.8 µM
[46]
  TGI: 69.4 µM
[59]
  TGI: 38.3 µM
[48]
  TGI: 38.8 µM
[49]
  TGI: 96.2 µM
[51]
  TGI: 39 µM
[52]
  TGI: 84.4 µM
[53]
  TGI: 45.9 µM
[54]
  TGI: 31.8 µM
